The target of data set [1] is cynomolgus monkey DR5 (His-tagged). The data set is described as follows: Biacore analysis of binding kinetics. More on the design: ka / kd: unit not given here. The settings on record: tested as DR5×CD3 mAb 2 diabody. On the procedure: Bispecific DR5×CD3 diabodies were incubated with His-tagged DR5 and the kinetics of binding was determined via Biacore analysis. […] FIG. 6, Panels A-D show the results for human DR5. FIG. 6, Panels E-H show the results for cynomolgus monkey DR5.
For orientation: In SPR one partner is held on a chip, and binding of the other changes the refractive index at the surface.

The target in data set [2] is histidine tagged TRAIL (Homo sapiens, UniProt P50591). The data set can be described thus: binding to TRAIL-His coat. The settings on record: 2 μg/mL biotinylated; 1 μg/mL TRAIL-His coat. As for the experimental part:
The amount of immobilized biotinylated antibody was assessed.

The test system of data set [3] is A549. The data set can be described thus: […]-GLO cell viability assay with vorinostat. Format: cell-based, human. The settings on record: A549 (Lung); 1 μg/ml + 10 μM Vorinostat.
Data set [4] concerns MDA-MB-361. The data set can be described thus: […]-GLO cell viability assay with vorinostat. The settings on record: MDA-MB-361 (Breast); 1 μg/ml + 10 μM Vorinostat. Type of data set: cell-based.
The subject of data set [5] is SKBR3. The data set can be described thus: […]-GLO cell viability assay with vorinostat. The settings on record: SKBR3 (Breast); 1 μg/ml + 1 μM Vorinostat. Format: cell-based, human.
Data set [6] deals with NCI-N87. The data set can be described thus: […]-GLO cell viability assay with vorinostat. Type of data set: cell-based. The conditions noted are these: NCI-N87 (Stomach); 1 μg/ml + 1 μM Vorinostat.
For data set [7], the system named is HPAFII. The data set can be described thus: […]-GLO cell viability assay with vorinostat. Format: cell-based. The settings on record: HPAFII (Pancreas); 1 μg/ml + 10 μM Vorinostat.
Data set [8] has as its system ES2. The data set is described as follows: […]-GLO cell viability assay with vorinostat. Format: cell-based. The conditions noted are these: ES2 (Ovary); 1 μg/ml + 10 μM Vorinostat.
Data set [9] relates to BT474. The data set is described as follows: […]-GLO cell viability assay with vorinostat. Type of data set: cell-based. The settings on record: BT474 (Breast); 1 μg/ml + 10 μM Vorinostat.
The test system of data set [10] is PC3. The data set can be described thus: […]-GLO cell viability assay with vorinostat. Type of data set: cell-based. The settings on record: PC3 (Prostate); 1 μg/ml + 1 μM Vorinostat.
Data set [11] concerns Hs700T. The data set is described as follows: […]-GLO cell viability assay with vorinostat. Type of data set: cell-based. The conditions noted are these: Hs700T (Pancreas); 1 μg/ml + 1 μM Vorinostat.
Data set [12] deals with Hs746T. The data set is described as follows: […]-GLO cell viability assay with vorinostat. Type of data set: cell-based. The conditions noted are these: Hs746T (Stomach); 1 μg/ml + 10 μM Vorinostat.
Data set [13] deals with Calu3. The data set is described as follows: […]-GLO cell viability assay with vorinostat. Type of data set: cell-based. The settings on record: Calu3 (Lung); 1 μg/ml + 1 μM Vorinostat.
In data set [14] the test system is 22RV1. The data set is described as follows: […]-GLO cell viability assay with vorinostat. Format: cell-based. The settings on record: 22RV1 (Prostate); 1 μg/ml + 10 μM Vorinostat.
Data set [15] relates to MCF7. The data set can be described thus: […]-GLO cell viability assay with vorinostat. Type of data set: cell-based. The settings on record: MCF7 (Breast); 1 μg/ml + 10 μM Vorinostat.
Data set [16] has as its system 786O. The data set can be described thus: […]-GLO cell viability assay with vorinostat. Type of data set: cell-based. The settings on record: 786O (Kidney); 1 μg/ml + 1 μM Vorinostat.
The subject of data set [17] is DU145. The data set is described as follows: […]-GLO cell viability assay with vorinostat. Format: cell-based, human. The conditions noted are these: DU145 (Prostate); 1 μg/ml + 10 μM Vorinostat.
For data set [18], the system named is AsPC1. The data set can be described thus: […]-GLO cell viability assay with vorinostat. Format: cell-based. The conditions noted are these: AsPC1 (Pancreas); 1 μg/ml + 1 μM Vorinostat.
The subject of data set [19] is SKOV3. The data set can be described thus: […]-GLO cell viability assay with vorinostat. Type of data set: cell-based. The settings on record: SKOV3 (Ovary); 1 μg/ml + 1 μM Vorinostat.
In data set [20] the test system is MDA-MB-175VII. The data set can be described thus: […]-GLO cell viability assay with vorinostat. Format: cell-based. The settings on record: MDA-MB-175VII (Breast); 1 μg/ml + 1 μM Vorinostat.
Data set [21] concerns LNCap. The data set is described as follows: […]-GLO cell viability assay with vorinostat. Format: cell-based, human. The settings on record: LNCap (Prostate); 1 μg/ml + 10 μM Vorinostat.
Data set [22] has as its system COLO205. The data set can be described thus: […]-GLO cell viability assay with vorinostat. Type of data set: cell-based. The conditions noted are these: for Average % Ctrl: one day. On the procedure: For the first study COLO205 cells were plated at 2×10^4 cells/well (in 96-well plates), and incubated overnight in F12/DMEM media supplemented with 10% FBS. […] Cell viability was determined using Promega […]-GLO® Luminescent Cell Viability Assay (Cat # G5430) essentially as described in the manufacturer's instructions to assay the amount of ATP present, which is a measure of the number of viable cells in the culture. Briefly, an […]-GLO® Reagent was added to the wells and mixed for two minutes to induce lysis and the luminescence was read in a in PerkinElmer EnVision multilabel plate reader.
Cell viability of cells treated with the test articles is normalized to the corresponding negative control (medium±vorinostat) which is set to 100% and reported in Table 12 as % of control for each test agent alone or % control for each test agent in combination with vorinostat. % of control values less than 100% indicate a reduction in viability and reflect the cytotoxicity of the test article alone or in combination with vorinostat.
The Net Gain (Average % Growth Inhibition)=% Medium Ctrl (10% FBS)−% Medium Ctrl (1/10 μM vorinostat), and represents increased cytotoxicity of the test article in combination with vorinostat over cells treated with vorinostat alone.

Data set [23] deals with engrafted breast cancer cells. The settings on record: cited from earlier work.
The subject of data set [24] is astrocytoma and leukemia cells. The conditions noted are these: cited from earlier work.
For data set [25] the following is noted: a few patients; higher doses (20 mg per kg); cited from earlier work.
The conditions of data set [26]: cited from earlier work.

histidine tagged TRAIL, sequence (P50591 114-281 limits assumed): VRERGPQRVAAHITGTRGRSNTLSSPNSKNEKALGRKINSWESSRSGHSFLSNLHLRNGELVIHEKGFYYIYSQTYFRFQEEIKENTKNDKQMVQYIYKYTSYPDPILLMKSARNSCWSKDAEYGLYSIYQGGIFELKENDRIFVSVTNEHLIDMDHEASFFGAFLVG

As usually defined, the Kd is a measure of binding affinity in units of concentration. Regarding “DR5 mAb 3: drozitumab, known anti-human DR5 antibody; VL SEQ ID NO:54, VH SEQ ID NO:58”, in data set [1], binding was characterised by a dissociation constant (Kd) of 13.3 nM, the ka is reported as 3.3 × 10^6 and the kd is given as 4.4 × 10^−2.

With “DR5 mAb 4: conatumumab, known anti-human DR5 antibody; VL SEQ ID NO:62, VH SEQ ID NO:66”, in [1], the Kd came out at 16.4 nM, the ka is on record as 2.5 × 10^6 and the kd is 4.1 × 10^−2.

With “DR5-Fc fusion: human DR5-Fc fusion protein, biotinylated, tested on TRAIL-His coat [reference compound]”, the “amount of immobilized biotinylated antibody” value in data set [2] turned out to be 0.288.

Consider “R&D TRAIL/His: His-tagged TRAIL (R&D systems) used as a positive control [reference compound]”, for which the “Net Gain (Average % Growth Inhibition)” value came to 26.71% in [3]; 64.85% in data set [4]; 43.10% in data set [5]; 35.97% in [6]; 46.71% in data set [7]; 79.12% in data set [8]. Besides, the “Net Gain (Average % Growth Inhibition)” value in data set [9] is 50.24%; in data set [10] it was 12.49%; in [11], 15.83%; in data set [12], 31.81%; in [13], 9.96%; in data set [14], 8.91%. Also, the “Net Gain (Average % Growth Inhibition)” value in data set [15] was found to be 0.79%; in data set [16], 31.16%; in [17], 4.57%; in data set [18], 11.86%; in data set [19], 33.93%; in data set [20], 24.17%. For the same substance, the figures for the “Net Gain (Average % Growth Inhibition)” value in data set [21], in data set [22] (Vorinostat 0.1 μM) and in data set [22] (Vorinostat 1 μM) were 28.73%, 15% and 24%, respectively. Besides, the “Average % Ctrl” value in [22] (Vorinostat 0 μM, % Medium Ctrl (10% FBS), 10 ng/ml tetravalent molecule or 1 μg/ml DR5 mAb) is listed as 68.7%; in data set [22] (Vorinostat 0.1 μM, normalized to medium + vorinostat), 54.1%; in data set [22] (Vorinostat 1 μM, normalized to medium + vorinostat) it was 44.8%.

With “TRA-8/CS-1008: humanized anti-DR5 antibody (Daiichi Sankyo)”, the “antitumor activity in vivo” value in [23] is on record as “high antitumor activity”. Moreover, the “antitumor activity in vitro” value in data set [24] is “high antitumor activity”.

As to “lexatumummab: anti-DR5 agonist antibody from Human Genome Sciences”, the hepatotoxicity entry in data set [25] was “Hepatotoxicity with increased serum alanine aminotransferase, aspartate aminotransferase and bilirubin”.

Regarding “soluble TRAIL: soluble TRAIL preparations”, the in vivo half-life entry in data set [26] is listed as “approximately 30 minutes”.
